Data published in US7687517B2, “3,9-Diazabicyclo [3.3.1] nonane derivatives and their use as monoamine neurotransmitter re-uptake inhibitors” (Neurosearch A/S, priority 2006, dated 2010).
Where a name gives a salt, the structure may show the parent alone. Read-outs that look alike come from different tables or passages of the source.

Legend:
[1] = biological target: T1, reuptake of dopamine (DA) in synaptosomes (Rattus norvegicus, UniProt P23977); assay: Inhibition of dopamine reuptake in synaptosomes; format: biochemical; conditions: 3H-DA, read-out: DA-uptake IC50
T1 construct: in synaptosomes as described in WO 97/16451; from tissue
T1 sequence (P23977 whole entry): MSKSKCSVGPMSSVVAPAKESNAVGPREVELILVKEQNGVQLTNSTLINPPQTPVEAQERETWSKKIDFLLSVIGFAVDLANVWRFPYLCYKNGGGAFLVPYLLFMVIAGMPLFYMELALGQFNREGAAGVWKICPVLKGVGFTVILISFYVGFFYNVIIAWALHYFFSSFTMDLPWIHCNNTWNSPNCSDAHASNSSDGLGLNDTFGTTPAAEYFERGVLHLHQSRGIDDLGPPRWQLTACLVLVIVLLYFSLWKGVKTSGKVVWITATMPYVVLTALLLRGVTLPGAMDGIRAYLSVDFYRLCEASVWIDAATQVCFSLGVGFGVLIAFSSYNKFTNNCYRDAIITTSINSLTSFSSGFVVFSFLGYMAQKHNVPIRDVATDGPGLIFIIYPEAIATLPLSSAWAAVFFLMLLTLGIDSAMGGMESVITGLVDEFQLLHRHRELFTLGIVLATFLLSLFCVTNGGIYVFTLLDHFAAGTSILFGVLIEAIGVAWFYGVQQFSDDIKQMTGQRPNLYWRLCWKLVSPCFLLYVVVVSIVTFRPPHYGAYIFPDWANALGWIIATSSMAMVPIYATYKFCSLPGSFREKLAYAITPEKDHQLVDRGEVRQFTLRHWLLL

[2] = biological target: T2, reuptake of noradrenaline (NA) in synaptosomes (Rattus norvegicus, UniProt Q63380); assay: Inhibition of noradrenaline reuptake in synaptosomes; format: biochemical
T2 construct: in synaptosomes as described in WO 97/16451; from tissue
T2 sequence (Q63380 1-617): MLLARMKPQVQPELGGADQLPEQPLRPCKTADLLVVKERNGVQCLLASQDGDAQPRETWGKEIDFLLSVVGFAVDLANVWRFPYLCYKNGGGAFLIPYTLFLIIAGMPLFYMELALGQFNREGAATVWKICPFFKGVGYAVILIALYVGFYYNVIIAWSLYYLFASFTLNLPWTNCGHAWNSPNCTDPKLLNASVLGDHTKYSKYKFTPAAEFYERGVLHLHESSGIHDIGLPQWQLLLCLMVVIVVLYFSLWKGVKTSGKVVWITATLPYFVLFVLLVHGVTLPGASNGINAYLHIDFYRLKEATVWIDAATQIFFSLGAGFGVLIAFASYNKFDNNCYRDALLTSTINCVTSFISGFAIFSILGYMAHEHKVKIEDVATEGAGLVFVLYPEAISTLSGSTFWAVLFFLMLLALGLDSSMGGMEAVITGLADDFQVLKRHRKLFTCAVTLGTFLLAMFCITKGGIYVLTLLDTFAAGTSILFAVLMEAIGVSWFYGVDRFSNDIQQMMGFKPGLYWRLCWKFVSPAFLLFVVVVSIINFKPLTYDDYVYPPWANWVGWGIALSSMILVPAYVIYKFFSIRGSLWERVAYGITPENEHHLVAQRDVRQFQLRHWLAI

[3] = biological target: T3, reuptake of serotonine (5-HT) in synaptosomes (Rattus norvegicus, UniProt P31652); assay: Inhibition of serotonin reuptake in synaptosomes; format: biochemical
T3 construct: in synaptosomes as described in WO 97/16451; from tissue
T3 sequence (P31652 whole entry): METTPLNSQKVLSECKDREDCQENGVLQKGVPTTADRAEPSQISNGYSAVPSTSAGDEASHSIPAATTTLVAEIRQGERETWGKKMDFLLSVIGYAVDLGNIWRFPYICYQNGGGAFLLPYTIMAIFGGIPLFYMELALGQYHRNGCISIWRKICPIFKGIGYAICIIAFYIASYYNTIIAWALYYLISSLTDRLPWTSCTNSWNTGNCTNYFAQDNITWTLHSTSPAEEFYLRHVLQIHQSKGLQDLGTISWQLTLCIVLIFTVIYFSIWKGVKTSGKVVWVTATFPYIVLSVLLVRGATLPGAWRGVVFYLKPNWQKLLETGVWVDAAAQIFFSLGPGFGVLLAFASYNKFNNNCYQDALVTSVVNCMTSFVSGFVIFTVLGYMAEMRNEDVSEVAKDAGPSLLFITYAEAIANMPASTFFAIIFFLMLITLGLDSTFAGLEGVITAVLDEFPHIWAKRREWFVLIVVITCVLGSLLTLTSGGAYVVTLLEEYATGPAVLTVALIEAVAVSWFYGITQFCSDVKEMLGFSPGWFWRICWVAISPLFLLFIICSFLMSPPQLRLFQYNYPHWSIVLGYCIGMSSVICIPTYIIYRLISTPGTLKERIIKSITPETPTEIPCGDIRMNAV
Description: A number of compounds were tested for their ability to inhibit the reuptake of the monoamine neurotransmitters dopamine (DA) noradrenaline (NA) and serotonine (5-HT) in synaptosomes as described in WO 97/16451.
The test values are given as IC50 (the concentration (μM) of the test substance which inhibits the specific binding of ^3H-DA, ^3H-NA, or ^3H-5-HT by 50%).

[4] = synaptosomes, 3H-NA, read-out: NA-uptake IC50

SMILES	melting point	IC50 [1]	IC50 [2, 4]	IC50 [3]	IC50 [2]
CN1C2CCCC1CN(c1ccc3ccccc3n1)C2 (as salt: fumaric acid salt) [2nd compound of Method A, 9-Methyl-3-quinolin-2-yl-3,9-diaza-bicyclo[3.3.1]nonane]	170.2 to 176.9 °C				
O=[N+]([O-])c1ccc2nc(N3CC4CCCC(C3)N4)ccc2c1 [1st compound of Method B, 3-(6-Nitro-quinolin-2-yl)-3,9-diaza-bicyclo[3.3.1]nonane]		> 1000 nM	1200 nM	0.9 nM	
CN1C2CCCC1CN(c1ccc3ccccc3n1)C2 [2nd compound of Method A, 9-Methyl-3-quinolin-2-yl-3,9-diaza-bicyclo[3.3.1]nonane]		> 1000 nM	140 nM	7.7 nM	
COc1ccc2nc(N3CC4CCCC(C3)N4C)ccc2c1 [5th compound of Method A, 3-(6-Methoxy-quinolin-2-yl)-9-methyl-3,9-diaza-bicyclo[3.3.1]nonane]		1800 nM		26 nM	100 nM
